Results taken from patent US20260250250A1, “3-(SULPHONYL OR SULFONIMIDOYL)PROP-2-EN-1-YL]-2-OXO-1,2-DIHYDROPYRIDINE-3-CARBOXAMIDE DERIVATIVES” (Flinder Therapeutics B.V., priority 2022, published 2026).

Tests used:
[1] = biological target: T1, human E3 ubiquitin-protein ligase RNF31 (HOIP) (Homo sapiens, UniProt Q96EP0); experiment: Cell-free HTRF-based HOIP inhibition assay; assay type: biochemical
T1 sequence (Q96EP0 695-1072 limits assumed): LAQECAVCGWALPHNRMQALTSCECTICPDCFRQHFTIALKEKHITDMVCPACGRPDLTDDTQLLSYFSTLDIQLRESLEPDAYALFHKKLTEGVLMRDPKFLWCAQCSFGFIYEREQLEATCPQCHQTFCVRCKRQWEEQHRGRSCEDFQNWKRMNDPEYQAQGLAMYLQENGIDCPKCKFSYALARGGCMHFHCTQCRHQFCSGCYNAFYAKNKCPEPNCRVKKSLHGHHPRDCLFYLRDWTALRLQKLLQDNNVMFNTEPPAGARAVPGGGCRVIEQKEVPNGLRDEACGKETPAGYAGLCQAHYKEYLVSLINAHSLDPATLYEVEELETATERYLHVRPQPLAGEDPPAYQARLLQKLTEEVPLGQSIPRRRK
How it was run: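 Recombinant human HOIP fragment (E. coli) preincubated with compounds (100-0.005 μM, 1% DMSO) and E1 for 1 h at 25° C. E2 and substrates then added; reaction 2.5 h at 25° C. HTRF read-out, excitation 337 nm, emissions 665/620 nm.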

[2] = tested on: NF-κB signaling pathway; experiment: Cell-based dual luciferase NF-κB reporter assay (HEK293 cells, TNF stimulated); details: Homo sapiens, HEK293
How it was run: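 HEK293 cells transfected with Firefly luciferase and NF-κB-response-element NanoLuc plasmids; compounds at 100–0.005 µM in 1% DMSO. Cells stimulated with 2.5 ng/mL TNF 30 min after compound addition. Firefly and NanoLuc activities read after 6 h by Nano-Glo dual-luciferase detection.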

[3] = tested on: bladder carcinoma RT4 cell line; experiment: TNF-α-induced cytotoxicity assay (CellTiter-Glo viability); assay type: cell-based; details: Homo sapiens, RT-4, 72 h
How it was run: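 RT4 bladder carcinoma cells, 1000 per well, stimulated with 1.25 ng/mL TNFα together with compound for 72 h at 37° C., 5% CO2. Viability read by CellTiter-Glo luminescence, proportional to cellular ATP, as a measure of HOIP-dependent cytotoxicity.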

SMILES	IC50 [1] [nM]	IC50 [2] [nM]	IC50 [3] [nM]
COCCS(=O)(=O)N1CCc2[nH]c(=O)c(C(=O)NC/C=C/S(=O)(=O)c3ccccc3)cc2C1 [Example 103, N-[(2E)-3-(benzenesulfonyl)prop-2-en-1-yl]-6-(2-methoxyethanesulfonyl)-2-oxo-1,2,5,6,7,8-hexahydro-1,6-naphthyridine-3-carboxamide]	≤ 1000	≤ 100000	≤ 100000
N#Cc1ccc(S(=N)(=O)/C=C/CNC(=O)c2cc3c([nH]c2=O)CCCC3)cc1 (stereo not drawn) [Example 136, N-[(2E)-3-[(4-cyanophenyl)(imino)oxo-λ^6-sulfanyl]prop-2-en-1-yl]-2-oxo-1,2,5,6,7,8-hexahydroquinoline-3-carboxamide]	≤ 100	≤ 1000	≤ 10000
CC1(C)CC1COC(=O)N1CCc2[nH]c(=O)c(C(=O)NC/C=C/S(=O)(=O)c3ccccc3)cc2C1 (stereo not drawn) [Example 73, (2,2-dimethylcyclopropyl)methyl 3-{[(2E)-3-(benzenesulfonyl)prop-2-en-1-yl]carbamoyl}-2-oxo-1,2,5,6,7,8-hexahydro-1,6-naphthyridine-6-carboxylate]	≤ 100	≤ 1000	≤ 1000
N=S(=O)(/C=C/CNC(=O)c1cc2c([nH]c1=O)CCCC2)c1ccccc1 (stereo not drawn) [Example 60, N-[(2E)-3-[imino(oxo)phenyl-λ^6-sulfanyl]prop-2-en-1-yl]-2-oxo-1,2,5,6,7,8-hexahydroquinoline-3-carboxamide]	≤ 1000	≤ 1000	≤ 10000
CC(OC(=O)N1CCc2[nH]c(=O)c(C(=O)NC/C=C/S(=O)(=O)c3ccccc3)cc2C1)C(F)(F)F (stereo not drawn) [Example 72, 1,1,1-trifluoropropan-2-yl 3-{[(2E)-3-(benzenesulfonyl)prop-2-en-1-yl]carbamoyl}-2-oxo-1,2,5,6,7,8-hexahydro-1,6-naphthyridine-6-carboxylate]	≤ 1000	≤ 1000	≤ 1000
CN(C)c1ccc(S(=O)(=O)/C=C/CNC(=O)c2cc3c([nH]c2=O)CCCC3)cc1 [Example 54, N-[(2E)-3-[4-(dimethylamino)benzenesulfonyl]prop-2-en-1-yl]-2-oxo-1,2,5,6,7,8-hexahydroquinoline-3-carboxamide]	≤ 1000	≤ 1000	≤ 1000
COCC(C)OC(=O)N1CCc2[nH]c(=O)c(C(=O)NC/C=C/S(=O)(=O)c3ccccc3)cc2C1 (stereo not drawn) [Example 75, 1-methoxypropan-2-vi 3-{[(2E)-3-(benzenesulfonyl)prop-2-en-1-yl]carbamoyl}-2-oxo-1,2,5,6,7,8-hexahydro-1,6-naphthyridine-6-carboxylate]	≤ 1000	≤ 10000	≤ 10000
COCCOC(=O)N1CCc2[nH]c(=O)c(C(=O)NC/C=C/S(=O)(=O)c3ccccc3)cc2C1 [Example 80, 2-Methoxyethyl 3-{[(2E)-3-(benzenesulfonyl)prop-2-en-1-yl]carbamoyl}-2-oxo-1,2,5,6,7,8-hexahydro-1,6-naphthyridine-6-carboxylate]	≤ 1000	≤ 100000	≤ 10000
O=C(NC/C=C/S(=O)(=O)c1ccc(Cl)cc1)c1cc2c([nH]c1=O)CCN(C(=O)NC1CC1)C2 [Example 101, N3-[(2E)-3-(4-chlorobenzenesulfonyl)prop-2-en-1-yl]-N6-cyclopropyl-2-oxo-1,2,5,6,7,8-hexahydro-1,6-naphthyridine-3,6-dicarboxamide]	≤ 1000	≤ 100000	≤ 100000
O=C(NC/C=C\S(=O)(=O)c1ccccc1)c1cc2c([nH]c1=O)CCCC2 [Example 9, N-[(2Z)-3-(benzenesulfonyl)prop-2-en-1-yl]-2-oxo-1,2,5,6,7,8-hexahydroquinoline-3-carboxamide]	≤ 1000	≤ 10000	≤ 10000
O=C(NC/C=C/S(=O)(=O)c1ccccc1)c1cc2c([nH]c1=O)CCC(F)(F)C2 [Example 49, N-[(2E)-3-(benzenesulfonyl)prop-2-en-1-yl]-6,6-difluoro-2-oxo-1,2,5,6,7,8-hexahydroquinoline-3-carboxamide]	≤ 1000	≤ 10000	≤ 10000
COc1ccc(S(=N)(=O)/C=C/CNC(=O)c2cc3ccccc3[nH]c2=O)cc1F (stereo not drawn) [Example 143, N-[(2E)-3-[(3-fluoro-4-methoxyphenyl)(imino)oxo-λ^6-sulfanyl]prop-2-en-1-yl]-2-oxo-1,2-dihydroquinoline-3-carboxamide]	≤ 100	≤ 1000	≤ 1000
N#Cc1ccc(S(=O)(=O)/C=C/CNC(=O)c2cc3c([nH]c2=O)CCCC3)cc1 [Example 56, N-[(2E)-3-(4-cyanobenzenesulfonyl)prop-2-en-1-yl]-2-oxo-1,2,5,6,7,8-hexahydroquinoline-3-carboxamide]	≤ 100	≤ 100	≤ 1000
O=C(NC/C=C/S(=O)(=O)c1ccccc1)c1cc2c([nH]c1=O)CCN(C(=O)OCC1CC1(F)F)C2 (stereo not drawn) [Example 74, (2,2-difluorocyclopropyl)methyl 3-{[(2E)-3-(benzenesulfonyl)prop-2-en-1-yl]carbamoyl}-2-oxo-1,2,5,6,7,8-hexahydro-1,6-naphthyridine-6-carboxylate]	≤ 1000	≤ 1000	≤ 10000
CC1(C)CC1COC(=O)N1CCc2[nH]c(=O)c(C(=O)NC/C=C/S(=O)(=O)c3ccc(Cl)cc3)cc2C1 (stereo not drawn) [Example 85, (2,2-dimethylcyclopropyl)methyl 3-{[(2E)-3-(4-chlorobenzenesulfonyl)prop-2-en-1-yl]carbamoyl}-2-oxo-1,2,5,6,7,8-hexahydro-1,6-naphthyridine-6-carboxylate]	≤ 100	≤ 1000	≤ 1000
O=C(NC/C=C/S(=O)(=O)c1ccc(F)cc1Cl)c1cc2c([nH]c1=O)CCCC2 [Example 33, N-[(2E)-3-(2-chloro-4-fluorobenzenesulfonyl)prop-2-en-1-yl]-2-oxo-1,2,5,6,7,8-hexahydroquinoline-3-carboxamide]	≤ 100	≤ 1000	≤ 1000
COc1ccc(S(=N)(=O)/C=C/CNC(=O)c2cc3c([nH]c2=O)CCC(C(C)(C)C)C3)cc1F (stereo not drawn) [Example 148, 6-tert-butyl-N-[(2E)-3-[(3-fluoro-4-methoxyphenyl)(imino)oxo-A*-sulfanyl]prop-2-en-1-yl]-2-oxo-1,2,5,6,7,8-hexahydroquinoline-3-carboxamide]	≤ 1000	≤ 1000	≤ 1000
O=C(NC/C=C/S(=O)(=O)c1ccccc1)c1cc2c([nH]c1=O)CCN(C(=O)OC1CCCC1)C2 [Example 84, cyclopentyl 3-{[(2E)-3-(benzenesulfonyl)prop-2-en-1-yl]carbamoyl}-2-oxo-1,2,5,6,7,8-hexahydro-1,6-naphthyridine-6-carboxylate]	≤ 100	≤ 1000	≤ 1000
Cn1ncc2c(CN3CCc4[nH]c(=O)c(C(=O)NC/C=C/S(=O)(=O)c5ccccc5)cc4C3)cccc21 [Example 121, N-[(2E)-3-(benzenesulfonyl)prop-2-en-1-yl]-6-[(1-methyl-1H-indazol-4-yl)methyl]-2-oxo-1,2,5,6,7,8-hexahydro-1,6-naphthyridine-3-carboxamide]	≤ 100	≤ 1000	≤ 10000
O=C(NC/C=C/S(=O)(=O)c1ccc(F)cc1F)c1cc2c([nH]c1=O)CCC2 [Example 42, N-[(2E)-3-(2,4-difluorobenzenesulfonyl)prop-2-en-1-yl]-2-oxo-1H,2H,5H,6H,7H-cyclopenta[b]pyridine-3-carboxamide]	≤ 1000	≤ 10000	≤ 1000
O=C(NC/C=C/S(=O)(=O)c1ccc(Cl)cc1)c1cc2c([nH]c1=O)CCN(C(=O)OC1COC1)C2 [Example 87, oxetan-3-vi 3-{[(2E)-3-(4-chlorobenzenesulfonyl)prop-2-en-1-yl]carbamoyl}-2-oxo-1,2,5,6,7,8-hexahydro-1,6-naphthyridine-6-carboxylate]	≤ 100	≤ 10000	≤ 100000
COc1ccc(S(=N)(=O)/C=C/CNC(=O)c2cc3c([nH]c2=O)CCC(OC)C3)cc1F (stereo not drawn) [Example 169, N-[(2E)-3-[(3-fluoro-4-methoxyphenyl)(imino)oxo-λ^6-sulfanyl]prop-2-en-1-yl]-6-methoxy-2-oxo-1,2,5,6,7,8-hexahydroquinoline-3-carboxamide]	≤ 1000	≤ 10000	≤ 10000
CC(C)(C)OC(=O)N1CCc2[nH]c(=O)c(C(=O)NC/C=C/S(=O)(=O)c3ccccc3)cc2C1 [Example 10, tert-butyl 3-{[(2E)-3-(benzenesulfonyl)prop-2-en-1-yl]carbamoyl}-2-oxo-1,2,5,6,7,8-hexahydro-1,6-naphthyridine-6-carboxylate]	≤ 100	≤ 1000	≤ 10000
